# According to article PMC6173696, “Structural properties of a haemophore facilitate targeted elimination of the pathogen Porphyromonas gingivalis” (Nature Communications, 2018):
# How the values were obtained:
# [1] = target: T1, IsdH(Y642A) (Staphylococcus aureus, UniProt Q931P4, Y642A); format: physicochemical; settings: haemin bound to IsdH (Y642A)
# T1 sequence (Q931P4 41-891 Y642A): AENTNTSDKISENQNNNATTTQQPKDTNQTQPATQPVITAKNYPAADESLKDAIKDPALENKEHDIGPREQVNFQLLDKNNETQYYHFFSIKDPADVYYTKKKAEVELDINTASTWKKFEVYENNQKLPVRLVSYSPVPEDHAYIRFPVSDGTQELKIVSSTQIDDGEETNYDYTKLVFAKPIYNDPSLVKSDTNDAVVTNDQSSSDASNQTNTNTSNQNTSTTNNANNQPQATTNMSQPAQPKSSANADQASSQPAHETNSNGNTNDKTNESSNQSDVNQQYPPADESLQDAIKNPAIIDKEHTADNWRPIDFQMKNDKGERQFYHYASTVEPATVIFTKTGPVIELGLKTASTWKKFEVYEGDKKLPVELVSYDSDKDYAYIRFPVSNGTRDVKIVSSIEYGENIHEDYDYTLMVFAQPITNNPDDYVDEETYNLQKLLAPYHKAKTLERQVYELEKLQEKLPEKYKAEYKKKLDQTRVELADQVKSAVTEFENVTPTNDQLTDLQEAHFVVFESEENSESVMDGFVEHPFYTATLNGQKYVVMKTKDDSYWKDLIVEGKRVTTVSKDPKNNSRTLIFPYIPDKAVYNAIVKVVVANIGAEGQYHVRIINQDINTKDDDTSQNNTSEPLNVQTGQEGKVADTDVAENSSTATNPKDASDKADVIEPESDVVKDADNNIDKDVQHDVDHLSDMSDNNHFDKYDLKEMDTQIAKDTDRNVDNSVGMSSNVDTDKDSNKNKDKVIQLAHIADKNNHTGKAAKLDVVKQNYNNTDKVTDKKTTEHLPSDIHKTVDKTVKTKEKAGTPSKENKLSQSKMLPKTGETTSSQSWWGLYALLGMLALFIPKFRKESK
# Protocol: Supplementary Figure 16. Acid-alkaline transition in UV-vis spectra of various haem binding proteins. (Top) UV-visible spectra (units of wavelength are nm) used to generate the pH titration curves shown in Figure 2h and in the bottom panel. (Bottom) Acid-alkaline titration of 5 µM haemin in presence of 7 µM IsdH, 5 µM IsdB, 7 µM IsdH(Y642A) and 7 µM p22HBP. All proteins are in holo form. See Fig 2h legend for buffer conditions. Absorbance A600–A650 values are plotted except for IsdH and IsdB, for which A630–A600 is plotted (to avoid negative values). […]
# [2] = tested on: HusA NNNA; assay: Haemin binding to HusA mutant with all four mutations (NNNA), UV-vis and fluorescence; parameters: species or system Porphyromonas gingivalis; settings: mutant incorporating all four mutations (L123, V124, W130, Y164)
# Protocol: All absorbance spectra were recorded at room temperature using 10-mm quartz cuvettes on a Shimadzu UV-1601 or Jasco V-630 spectrophotometer. Mixtures of HusA/mutant with porphyrins were prepared by dissolving porphyrin stocks in standard buffer to a final concentration of 5–20 μM with a 1–1.5 molar ratio of protein to porphyrin, as specified in the relevant figure legends. PPIX:HusA mixtures were prepared by incremental addition of 2–4 μM HusA with a 10–15 min wait after each addition of HusA.
# (§1) The quenching of intrinsic tryptophan fluorescence of HusA upon porphyrin additions was measured using a Carey Eclipse Fluorescence Spectrophotometer (Agilent) set to a photo multiplier effect (PME) of 850. A 5-mm path length quartz cuvette was used and all spectra were acquired at room temperature. Excitation was set to 295 nm and emission was measured from 300 nm to 500 nm using excitation/emission slit widths of 5 nm. Binding assays were performed at a protein concentration of 1 μM HusA in standard buffer at a working volume of 0.5 mL. […] The fluorescence quenching of HusA by PPIX was investigated in a similar manner with the following difference: the fluorescence intensities of ten 1 μM HusA samples were measured each with increasing amounts of PPIX after a 2-h incubation period to allow equilibrium to be reached. […]
# [3] = target: T2, HusA L123N-V124N (Porphyromonas gingivalis, UniProt Q7MSY3, L123N/V124N); assay: Tryptophan fluorescence quenching assay, HusA mutant L123N-V124N; format: binding; settings: mutant LV123/4NN
# T2 sequence (Q7MSY3 24-218 L123N/V124N): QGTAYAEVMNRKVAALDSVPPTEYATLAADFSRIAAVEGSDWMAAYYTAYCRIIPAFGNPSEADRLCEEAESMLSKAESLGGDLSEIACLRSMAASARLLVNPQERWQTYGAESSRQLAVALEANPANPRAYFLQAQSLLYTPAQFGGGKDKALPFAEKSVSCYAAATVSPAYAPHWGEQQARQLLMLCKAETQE
# Protocol: as §1, with “reached. See Supplementary Methods for correction for inner filter effect and curve fitting.” for “reached.”
# Correction of inner filter effect and curve fitting in tryptophan fluorescence quenching assays The concentration of NATA was chosen such that the raw fluorescence intensity was similar to the 10 uM concentrations of HusA and mutants used. […] Fluorescence intensity was scaled with respect to the starting florescence and corrected for the inner filter effect. Fluorescence at 335 nm was used to fit binding curves. […]
structure (smiles),measurement,setting,value
C=CC1=C(C)c2cc3[nH]c(cc4nc(cc5[nH]c(cc1n2)c(C)c5CCC(=O)O)C(CCC(=O)O)=C4C)c(C)c3C=C.[Fe+3] [haemin],pKa of acid-alkaline transition,[1],5.9
same,binding to haemin,[2],minimal binding
same,reduction of haemin affinity compared to wild-type,[3],> 50%
